From PubChem BioAssay (NCI)
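Cells were grown in 96-well plates and exposed to each compound for 48 hours at five concentrations; endpoints were interpolated linearly between bracketing concentrations, or set to the highest concentration if not reached. GI50 marks 50% less growth. TGI denotes the concentration required for complete inhibition of growth.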

Experiments:
Assay in all cases: inhibition of tumour cell growth, NCI panel, 48 h
HOP-92 NSCLC = system: HOP-92 NSCLC
HCC-2998 colon = system: HCC-2998 colon
NCI-H23 lung = system: NCI-H23 lung
SNB-75 CNS = system: SNB-75 CNS
LOX IMVI melanoma = system: LOX IMVI melanoma
UACC-257 melanoma = system: UACC-257 melanoma
OVCAR-4 ovarian = system: OVCAR-4 ovarian
BT-549 breast = system: BT-549 breast
SK-OV-3 ovarian = system: SK-OV-3 ovarian
SW-620 colon = system: SW-620 colon
SK-MEL-28 melanoma = system: SK-MEL-28 melanoma
MALME-3M melanoma = system: MALME-3M melanoma
DU-145 prostate = system: DU-145 prostate
NCI-H522 lung = system: NCI-H522 lung
OVCAR-3 ovarian = system: OVCAR-3 ovarian
MDA-N = system: MDA-N

| SMILES | GI50 (HOP-92 NSCLC) | TGI (HOP-92 NSCLC) | GI50 (HCC-2998 colon) | TGI (HCC-2998 colon) | TGI (NCI-H23 lung) | TGI (SNB-75 CNS) | TGI (LOX IMVI melanoma) | TGI (UACC-257 melanoma) | TGI (OVCAR-4 ovarian) | GI50 (BT-549 breast) | TGI (BT-549 breast) | TGI (SK-OV-3 ovarian) | TGI (SW-620 colon) | TGI (SK-MEL-28 melanoma) | TGI (MALME-3M melanoma) | TGI (DU-145 prostate) | TGI (NCI-H522 lung) | TGI (OVCAR-3 ovarian) | TGI (MDA-N) |
| --- | --- | --- | --- | --- | --- | --- | --- | --- | --- | --- | --- | --- | --- | --- | --- | --- | --- | --- | --- |
| NCCSC1(O)C(=O)c2ccccc2-c2ccccc21 (stereo not given) | 1.3 µM | 2.62 µM | 2.01 µM | 3.56 µM | 3.75 µM | 2.4 µM | 0.717 µM | 2.09 µM | 0.556 µM | 1.56 µM | 2.9 µM | 2.95 µM | 3.16 µM | 2.85 µM | 2.84 µM | 2.28 µM | 2.95 µM | 0.38 µM |  |
| COc1cc2c(OC)c3cc(C)oc(=O)c3c(O)c2c(O)c1-c1c(OC)cc2c(OC)c3cc(C)oc(=O)c3c(O)c2c1O |  | 55.9 µM |  | 33.5 µM | 32.5 µM | > 100 µM | 43.8 µM | 44.1 µM | > 100 µM |  | 68.5 µM | > 100 µM | > 100 µM | 53.5 µM | 37.2 µM | > 100 µM | 40 µM | 33.9 µM |  |
| CC(C)C1=CC23CCC4C(C)(C(=O)O)CCCC4(C)C2CC1C1C(=O)N(c2ccc(N4C(=O)C5C6CC7C8(C)CCCC(C)(C(=O)O)C8CCC7(C=C6C(C)C)C5C4=O)cc2)C(=O)C13 (stereo not given) |  | 28.5 µM |  | 16.4 µM | 11.9 µM |  |  |  | 25.1 µM |  |  |  | 21.6 µM | 16.7 µM | 27.9 µM | 16.6 µM | 17 µM | 18.6 µM | 16.1 µM |
| CC12CCC3C(CCC4(O)C=CCCC34C=O)C1(O)CC(O)C2c1ccc(=O)oc1 (stereo not given) |  | 0.267 µM |  | 0.252 µM | 0.12 µM | 0.246 µM | 0.216 µM | 0.478 µM | 0.102 µM |  |  | 0.248 µM | 0.222 µM | 0.799 µM | 0.0877 µM |  | 0.0622 µM | 0.0939 µM |  |
| CC1OC(n2ccc3ccc([N+](=O)[O-])cc32)C(O)C(O)C1O (stereo not given) |  | > 100 µM |  |  | > 100 µM | > 100 µM | > 100 µM | > 100 µM | > 100 µM |  |  | > 100 µM | > 100 µM | > 100 µM | > 100 µM |  | > 100 µM | > 100 µM |  |
| N#CC(NNC(=O)Cc1ccccc1)c1ccc(O)cc1 (stereo not given) |  | > 100 µM |  |  | > 100 µM | 97.5 µM | > 100 µM | > 100 µM | > 100 µM |  |  | > 100 µM | > 100 µM | > 100 µM | > 100 µM |  | > 100 µM |  |  |
| Nc1ccc(N=Nc2ccc(-c3ccc(N=Nc4c(S(=O)(=O)O)cc5cc(S(=O)(=O)O)c(N=Nc6ccc([N+](=O)[O-])cc6)c(N)c5c4O)cc3)cc2)c2cc(S(=O)(=O)O)ccc12 |  | > 100 µM |  | > 100 µM | > 100 µM | > 100 µM | > 100 µM | > 100 µM | > 100 µM |  |  | > 100 µM | > 100 µM | > 100 µM | > 100 µM |  | > 100 µM | > 100 µM |  |
| Cc1cc2c(=O)c3ccc(Cl)cc3[nH]c2c(C(=O)O)c1C |  |  |  | > 100 µM | > 100 µM | > 100 µM | > 100 µM | > 100 µM | > 100 µM |  |  | > 100 µM | > 100 µM | > 100 µM | > 100 µM |  | > 100 µM | > 100 µM |  |
| CC1(C)CC(=O)c2c(nc3c(ccc4ccccc43)c2-c2ccc(NC(=O)CCCCCCCCC(=O)Nc3ccc(-c4c5c(nc6c4ccc4ccccc46)CC(C)(C)CC5=O)cc3)cc2)C1 |  |  |  |  |  | > 100 µM | > 100 µM | > 100 µM |  |  |  | > 100 µM | > 100 µM | > 100 µM |  | > 100 µM | > 100 µM | > 100 µM | > 100 µM |
